Columns and labels:
[1] = molecular target: mTOR (human recombinant aa mTOR 1360-2549) (Homo sapiens (Human), UniProt P42345); assay: mTOR enzymatic test by TR-FRET (phosphorylation of GFP-4EBP1); format: biochemical
Procedure, shortened: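 After a 30 min room-temperature kinase reaction, EDTA (10 mM final) and Tb-labelled phospho-Thr46 antibody (2 nM final) were added and incubated 60 min. Energy transfer from Tb to phosphorylated GFP-4EBP1 was read at 340 nm excitation, emissions 490/520 nm. Values derive from the 520/490 fluorescence ratio.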

[2] = molecular target: PI3Kα (p110α/p85α) (Homo sapiens (Human), UniProt P42336); assay: PI3Kα enzymatic test by measuring the consumption of ATP; format: biochemical
PI3Kα (p110α/p85α), sequence (P42336 whole entry): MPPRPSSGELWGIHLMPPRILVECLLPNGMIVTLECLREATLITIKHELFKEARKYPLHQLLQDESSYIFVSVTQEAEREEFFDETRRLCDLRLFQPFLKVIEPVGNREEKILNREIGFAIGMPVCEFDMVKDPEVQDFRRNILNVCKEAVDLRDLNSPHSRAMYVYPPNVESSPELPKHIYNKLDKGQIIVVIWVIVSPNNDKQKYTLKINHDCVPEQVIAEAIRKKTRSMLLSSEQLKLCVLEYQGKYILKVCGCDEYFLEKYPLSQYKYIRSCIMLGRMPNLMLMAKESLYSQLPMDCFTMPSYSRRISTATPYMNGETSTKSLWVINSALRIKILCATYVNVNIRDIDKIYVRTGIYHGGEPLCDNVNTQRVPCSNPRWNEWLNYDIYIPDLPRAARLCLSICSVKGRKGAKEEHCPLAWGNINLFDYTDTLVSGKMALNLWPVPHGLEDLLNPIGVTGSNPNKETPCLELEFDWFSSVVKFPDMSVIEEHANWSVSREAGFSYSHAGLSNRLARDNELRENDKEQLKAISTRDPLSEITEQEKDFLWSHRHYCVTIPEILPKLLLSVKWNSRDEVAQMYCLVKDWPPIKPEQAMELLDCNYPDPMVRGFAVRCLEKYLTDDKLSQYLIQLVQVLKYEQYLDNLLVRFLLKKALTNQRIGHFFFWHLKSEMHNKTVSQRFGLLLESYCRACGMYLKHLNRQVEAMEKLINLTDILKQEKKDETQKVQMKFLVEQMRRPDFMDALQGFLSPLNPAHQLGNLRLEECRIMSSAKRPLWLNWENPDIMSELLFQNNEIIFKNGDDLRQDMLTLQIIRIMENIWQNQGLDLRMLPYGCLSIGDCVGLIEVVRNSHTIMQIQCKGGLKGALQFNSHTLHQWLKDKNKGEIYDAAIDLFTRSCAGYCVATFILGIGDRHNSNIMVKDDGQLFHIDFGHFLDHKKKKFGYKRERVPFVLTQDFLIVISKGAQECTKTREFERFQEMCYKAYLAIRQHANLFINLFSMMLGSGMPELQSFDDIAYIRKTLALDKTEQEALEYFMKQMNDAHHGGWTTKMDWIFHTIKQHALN
PI3Kα (p110α/p85α), sequence (P27986 whole entry partner): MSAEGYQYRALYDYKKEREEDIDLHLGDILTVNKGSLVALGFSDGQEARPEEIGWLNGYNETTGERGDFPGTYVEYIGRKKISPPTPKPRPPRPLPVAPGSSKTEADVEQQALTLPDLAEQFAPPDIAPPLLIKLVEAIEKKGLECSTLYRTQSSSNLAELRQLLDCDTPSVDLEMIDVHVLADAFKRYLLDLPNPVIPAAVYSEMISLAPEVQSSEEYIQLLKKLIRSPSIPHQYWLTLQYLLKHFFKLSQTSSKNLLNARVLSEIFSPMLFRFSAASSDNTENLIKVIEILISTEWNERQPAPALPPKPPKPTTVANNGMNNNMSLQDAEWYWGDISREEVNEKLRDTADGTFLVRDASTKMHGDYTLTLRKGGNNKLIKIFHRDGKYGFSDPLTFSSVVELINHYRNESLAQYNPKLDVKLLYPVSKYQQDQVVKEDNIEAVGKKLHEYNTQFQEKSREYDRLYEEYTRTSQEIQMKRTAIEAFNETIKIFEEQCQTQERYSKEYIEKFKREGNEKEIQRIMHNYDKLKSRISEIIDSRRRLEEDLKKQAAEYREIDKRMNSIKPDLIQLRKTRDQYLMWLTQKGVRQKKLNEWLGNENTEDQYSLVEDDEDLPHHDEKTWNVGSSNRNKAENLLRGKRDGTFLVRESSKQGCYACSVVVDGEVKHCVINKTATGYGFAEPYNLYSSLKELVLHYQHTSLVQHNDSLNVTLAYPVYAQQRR
Procedure, shortened: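 ATP consumption read out by KinaseGlo luminescence after a 90 min reaction of 1.7 μg/ml PI3Kα (p110α/p85α) with 2 μM ATP and 50 μM PIP2, buffered at pH 7.5 (Tris, 10 mM MgCl2, 1 mM EGTA, 0.03% Chaps, 1 mM DTT). Threefold dilution series over ≥10 000-fold range yield IC50.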

[3] = test system: U87MG tumour cells; assay: Test of in vitro proliferation of U87MG tumour cells; format: cell-based; details: Homo sapiens, U-87 MG, 72 h, U87MG cells, 72 hours; read-out: U87 Cell Proliferation IC50
Experimental: Model 4: Test of in vitro Proliferation of U87MG Tumour Cells.
The cell growth is determined with the reagent CellTiter 96 AQueous One Solution Cell Proliferation Assay from Promega (Cat. No. G3581).

[4] = test system: Akt-pS473 in U87MG cells; details: Homo sapiens, U-87 MG, read-out: U87 Akt-pS473 % Inhibition or IC50, nM (IC50), U87MG cells

mTOR (human recombinant aa mTOR 1360-2549), sequence (P42345 1360-2549): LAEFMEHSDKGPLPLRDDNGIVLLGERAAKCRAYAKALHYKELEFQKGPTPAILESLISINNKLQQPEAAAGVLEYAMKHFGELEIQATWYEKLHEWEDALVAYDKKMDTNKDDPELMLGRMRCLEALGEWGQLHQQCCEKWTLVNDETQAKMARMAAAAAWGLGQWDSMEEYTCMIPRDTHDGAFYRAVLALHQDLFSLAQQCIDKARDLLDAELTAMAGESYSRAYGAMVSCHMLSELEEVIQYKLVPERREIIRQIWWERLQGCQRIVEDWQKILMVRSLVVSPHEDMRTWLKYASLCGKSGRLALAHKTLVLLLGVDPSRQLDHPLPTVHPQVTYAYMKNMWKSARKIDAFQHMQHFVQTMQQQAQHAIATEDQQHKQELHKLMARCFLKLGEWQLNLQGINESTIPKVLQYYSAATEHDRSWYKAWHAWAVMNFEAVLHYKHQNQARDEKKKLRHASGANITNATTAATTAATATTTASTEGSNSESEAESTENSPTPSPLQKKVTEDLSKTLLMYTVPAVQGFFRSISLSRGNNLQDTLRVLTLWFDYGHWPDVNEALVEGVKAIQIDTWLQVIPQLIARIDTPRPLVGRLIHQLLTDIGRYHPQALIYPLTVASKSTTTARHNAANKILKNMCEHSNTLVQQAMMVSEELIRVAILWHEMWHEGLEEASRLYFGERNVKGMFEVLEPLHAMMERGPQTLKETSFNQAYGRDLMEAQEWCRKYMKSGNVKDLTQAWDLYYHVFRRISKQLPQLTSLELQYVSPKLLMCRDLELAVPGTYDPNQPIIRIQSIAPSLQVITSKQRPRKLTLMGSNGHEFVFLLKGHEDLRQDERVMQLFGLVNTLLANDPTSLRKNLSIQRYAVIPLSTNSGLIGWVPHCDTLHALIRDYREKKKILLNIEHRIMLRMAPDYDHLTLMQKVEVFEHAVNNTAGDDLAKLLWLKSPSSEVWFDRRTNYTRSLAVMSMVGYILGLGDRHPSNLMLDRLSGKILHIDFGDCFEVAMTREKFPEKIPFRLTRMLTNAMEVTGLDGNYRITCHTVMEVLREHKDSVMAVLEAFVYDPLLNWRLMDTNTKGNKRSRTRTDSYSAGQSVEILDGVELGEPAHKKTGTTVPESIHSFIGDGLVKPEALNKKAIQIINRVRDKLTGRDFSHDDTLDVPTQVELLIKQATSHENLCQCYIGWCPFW

In the case of CCNC(=O)Nc1ccc(-c2nc(N3CC4CCC(C3)O4)nc3c2C(=O)N(CC)CC(C)(C)O3)cc1F [Example 110, 1-Ethyl-3-{4-[6-ethyl-8,8-dimethyl-2-(8-oxa-3-azabicyclo[3.2.1]oct-3-yl)-5-oxo-5,6,7,8-tetrahydro-9-oxa-1,3,6-triazabenzocyclohepten-4-yl]-2-fluorophenyl}urea], the IC50 [1] is reported as 45 nM, the “PI3Ka IC50” value [2] is reported as greater than 10000 nM and the IC50 [3] is reported as 506 nM. The IC50 [4] was 89 nM.
CC1(C)CN(C2CCOCC2)C(=O)c2c(nc(N3CC4CCC(C3)O4)nc2-c2ccc(NC(=O)Nc3ccon3)c(F)c2)O1 [Example 153, 1-{4-[8,8-Dimethyl-2-(8-oxa-3-azabicyclo[3.2.1]oct-3-yl)-5-oxo-6-(tetrahydropyran-4-yl)-5,6,7,8-tetrahydro-9-oxa-1,3,6-triazabenzocyclohepten-4-yl]-2-fluorophenyl}-3-isoxazol-3-ylurea] was tested, and the IC50 [1] was 31 nM, the “PI3Ka IC50” value [2] was greater than 10000 nM and the IC50 [3] was 346 nM. The IC50 [4] was 116 nM.
For CC[C@H]1COCCN1c1nc2c(c(-c3ccc(NC(=O)NC)c(F)c3)n1)C(=O)N(CC)CC(C)(C)O2 [Example 228, 1-{4-[6-Ethyl-2-((S)-3-ethylmorpholin-4-yl)-8,8-dimethyl-5-oxo-5,6,7,8-tetrahydro-9-oxa-1,3,6-triazabenzocyclohepten-4-yl]-2-fluorophenyl}-3-methylurea], the IC50 [1] was 70 nM, the “PI3Ka IC50” value [2] was 6600 nM and the IC50 [3] was 229 nM. It also gave an IC50 [4] of 72 nM.
CCN1CC(C)(C)Oc2nc(N3C4CCC3COC4)nc(-c3ccc(NC(=O)Nc4ccc(N5CC6CCC(C5)O6)nc4)c(F)c3)c2C1=O [Example 259, 1-{4-[6-Ethyl-8,8-dimethyl-2-(3-oxa-8-azabicyclo[3.2.1]oct-8-yl)-5-oxo-5,6,7,8-tetrahydro-9-oxa-1,3,6-triazabenzocyclohepten-4-yl]-2-fluorophenyl}-3-[6-(8-oxa-3-azabicyclo[3.2.1]oct-3-yl)pyridin-3-yl]urea] was tested, and the IC50 [1] was 87 nM, the “PI3Ka IC50” value [2] was greater than 10000 nM and the IC50 [3] was 87 nM. It also gave an IC50 [4] of 16 nM.
CCN1CC(C)(C)Oc2nc(N3CCOC[C@@H]3C)nc(-c3ccc(NC(=O)Nc4ccc(N5CCN(C)CC5)cn4)cc3)c2C1=O [Example 218, 1-{4-[6-Ethyl-8,8-dimethyl-2-((S)-3-methylmorpholin-4-yl)-5-oxo-5,6,7,8-tetrahydro-9-oxa-1,3,6-triazabenzocyclohepten-4-yl]phenyl}-3-[5-(4-methylpiperazin-1-yl)pyridin-2-yl]urea] was tested, and the IC50 [1] was 58 nM, the “PI3Ka IC50” value [2] was 1060 nM and the IC50 [3] was 211 nM. The IC50 [4] was 17 nM.
For CCN1CC(C)(C)Oc2nc(N3CC4CCC(C3)O4)nc(-c3ccc(NC(=O)Nc4ccc(N5CCOCC5)nc4)c(F)c3)c2C1=O [Example 200, 1-{4-[6-Ethyl-8,8-dimethyl-2-(8-oxa-3-azabicyclo[3.2.1]oct-3-yl)-5-oxo-5,6,7,8-tetrahydro-9-oxa-1,3,6-triazabenzocyclohepten-4-yl]-2-fluorophenyl}-3-(6-morpholin-4-ylpyridin-3-yl)urea], the IC50 [1] was 52 nM, the “PI3Ka IC50” value [2] was greater than 10000 nM and the IC50 [3] was 108 nM. For the same molecule, the IC50 [4] was 9 nM.
With CCN1CC(C)(C)Oc2nc(N3CC4CCC(C3)O4)nc(-c3ccc(NC(=O)NC)c(F)c3)c2C1=O [Example 1, 1-{4-[6-Ethyl-8,8-dimethyl-2-(8-oxa-3-azabicyclo[3.2.1]oct-3-yl)-5-oxo-5,6,7,8-tetrahydro-9-oxa-1,3,6-triazabenzocyclohepten-4-yl]-2-fluorophenyl}-3-methylurea] the IC50 [1] was 23 nM, the “PI3Ka IC50” value [2] was 8841 nM and the IC50 [3] was 197 nM. For the same molecule, the IC50 [4] was 55 nM.
For CCNC(=O)Nc1ccc(-c2nc(N3CC4CCC(C3)O4)nc3c2C(=O)N(CCC(=O)N(C)C)CC(C)(C)O3)cc1 [Example 8, 3-[4-[4-(3-ethylureido)phenyl]-8,8-dimethyl-2-(8-oxa-3-azabicyclo[3.2.1]oct-3-yl)-5-oxo-7,8-dihydro-5H-9-oxa-1,3,6-triazabenzocyclohepten-6-yl]-N,N-dimethylpropionamide], the IC50 [1] was 44 nM, the “PI3Ka IC50” value [2] was greater than 10000 nM and the IC50 [3] was 3810 nM. The IC50 [4] was 537 nM.

Source: patent publication US9120812B2, “Pyrimidooxazocine derivatives as mTOR-inhibitors” (SANOFI, priority 2012, dated 2015)
